What was measured:
Experiment in all cases: KAM-matrix competition in K562 lysate;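 for 0.001 uM KAM: median log10 fold change of treatment over DMSO control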;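 for 0.01 uM KAM: median log10 fold change of treatment over DMSO control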;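 for 0.1 uM KAM: median log10 fold change of treatment over DMSO control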;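 for 1 uM KAM: median log10 fold change of treatment over DMSO control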;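 for 10 uM KAM: median log10 fold change of treatment over DMSO control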
Format in all cases: binding
[1] = biological target: T1, IGF1R (Homo sapiens, UniProt P08069)
T1 construct: K562 cell pellets were thawed on ice and resuspended in cold Lysis buffer; endogenous in cells; host or cells: K562
Method: (§1) Supplement 12953_2017_125_MOESM1_ESM.zip/MS_Supp Info.xlsx, sheet "KAM" | column: 10 uM KAM; 1 uM KAM; 0.1 uM KAM; 0.01 uM KAM; 0.001 uM KAM; RB50

[2] = biological target: T2, LATS2 (Homo sapiens, UniProt Q9NRM7)
T2 construct: endogenous in cells; host or cells: K562
T2 sequence (Q9NRM7 1-1088): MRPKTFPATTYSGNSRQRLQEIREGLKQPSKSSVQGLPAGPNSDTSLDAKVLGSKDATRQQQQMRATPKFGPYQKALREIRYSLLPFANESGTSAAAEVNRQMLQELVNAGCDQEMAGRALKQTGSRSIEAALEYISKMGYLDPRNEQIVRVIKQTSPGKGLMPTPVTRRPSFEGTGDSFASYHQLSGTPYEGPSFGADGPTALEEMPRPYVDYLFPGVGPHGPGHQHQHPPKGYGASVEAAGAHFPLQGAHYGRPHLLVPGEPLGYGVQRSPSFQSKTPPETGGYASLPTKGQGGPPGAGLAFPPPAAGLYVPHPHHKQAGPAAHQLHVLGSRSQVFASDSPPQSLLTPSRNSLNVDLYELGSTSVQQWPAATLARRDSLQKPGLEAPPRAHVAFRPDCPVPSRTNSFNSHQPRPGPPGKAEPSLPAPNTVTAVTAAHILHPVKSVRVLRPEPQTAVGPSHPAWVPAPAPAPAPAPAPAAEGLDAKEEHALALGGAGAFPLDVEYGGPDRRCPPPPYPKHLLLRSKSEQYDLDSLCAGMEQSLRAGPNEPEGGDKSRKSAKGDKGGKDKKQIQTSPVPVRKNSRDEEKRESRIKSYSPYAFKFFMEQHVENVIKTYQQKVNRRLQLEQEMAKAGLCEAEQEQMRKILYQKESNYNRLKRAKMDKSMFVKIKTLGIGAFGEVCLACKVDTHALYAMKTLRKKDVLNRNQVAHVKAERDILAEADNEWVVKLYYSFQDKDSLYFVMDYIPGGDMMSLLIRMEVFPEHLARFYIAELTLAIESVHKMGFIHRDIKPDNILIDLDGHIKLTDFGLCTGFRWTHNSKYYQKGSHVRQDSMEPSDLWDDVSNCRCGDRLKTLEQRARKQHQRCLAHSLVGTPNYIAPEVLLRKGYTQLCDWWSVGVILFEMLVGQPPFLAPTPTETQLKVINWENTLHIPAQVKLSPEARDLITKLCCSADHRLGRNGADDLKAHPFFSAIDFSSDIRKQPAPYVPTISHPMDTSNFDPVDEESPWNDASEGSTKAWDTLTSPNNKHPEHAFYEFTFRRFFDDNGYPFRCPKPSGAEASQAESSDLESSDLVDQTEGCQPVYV
Method: as §1

[3] = biological target: T3, PKN1 (Homo sapiens, UniProt Q16512);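 for 0.001 uM KAM: median log10 fold change of treatment over DMSO control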;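 for 0.01 uM KAM: median log10 fold change of treatment over DMSO control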;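 for 0.1 uM KAM: median log10 fold change of treatment over DMSO control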;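 for 1 uM KAM: median log10 fold change of treatment over DMSO control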;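 for 10 uM KAM: median log10 fold change of treatment over DMSO control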
T3 construct: endogenous in cells; host or cells: K562
Method: as §1

[4] = biological target: T4, PRPF4B (Homo sapiens, UniProt Q13523)
T4 construct: endogenous in cells; host or cells: K562
Method: as §1

[5] = biological target: T5, SPEG (Homo sapiens, UniProt Q15772);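 for 0.001 uM KAM: median log10 fold change of treatment over DMSO control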;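 for 0.01 uM KAM: median log10 fold change of treatment over DMSO control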;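 for 0.1 uM KAM: median log10 fold change of treatment over DMSO control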;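 for 1 uM KAM: median log10 fold change of treatment over DMSO control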;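 for 10 uM KAM: median log10 fold change of treatment over DMSO control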
T5 construct: endogenous in cells; host or cells: K562
Method: as §1

[6] = biological target: T6, TAOK3 (Homo sapiens, UniProt Q9H2K8)
T6 construct: endogenous in cells; host or cells: K562
T6 sequence (Q9H2K8 1-898): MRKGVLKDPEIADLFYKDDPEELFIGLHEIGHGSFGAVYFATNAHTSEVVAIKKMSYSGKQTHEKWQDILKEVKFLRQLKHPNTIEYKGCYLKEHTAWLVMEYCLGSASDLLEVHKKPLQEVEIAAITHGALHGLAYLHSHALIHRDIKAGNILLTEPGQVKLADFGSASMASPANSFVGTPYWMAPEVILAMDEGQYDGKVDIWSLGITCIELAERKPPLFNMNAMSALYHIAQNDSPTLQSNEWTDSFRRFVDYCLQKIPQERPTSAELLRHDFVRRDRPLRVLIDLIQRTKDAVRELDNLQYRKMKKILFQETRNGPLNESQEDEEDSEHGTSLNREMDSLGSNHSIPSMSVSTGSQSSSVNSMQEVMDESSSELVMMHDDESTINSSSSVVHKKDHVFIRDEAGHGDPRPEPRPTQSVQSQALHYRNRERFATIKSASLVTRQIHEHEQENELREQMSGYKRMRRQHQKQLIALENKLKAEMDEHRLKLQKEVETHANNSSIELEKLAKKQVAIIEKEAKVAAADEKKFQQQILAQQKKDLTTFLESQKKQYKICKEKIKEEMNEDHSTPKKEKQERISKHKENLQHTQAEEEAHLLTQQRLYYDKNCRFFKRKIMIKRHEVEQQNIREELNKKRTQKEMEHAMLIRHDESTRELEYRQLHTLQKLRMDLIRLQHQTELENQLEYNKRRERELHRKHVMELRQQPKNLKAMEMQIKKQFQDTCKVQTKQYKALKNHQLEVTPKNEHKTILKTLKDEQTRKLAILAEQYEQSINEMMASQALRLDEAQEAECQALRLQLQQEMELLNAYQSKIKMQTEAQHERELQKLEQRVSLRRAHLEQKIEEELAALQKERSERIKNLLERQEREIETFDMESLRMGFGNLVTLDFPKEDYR
Method: as §1

[7] = read-out: RB50 (the source's name)
[8] = KAM 0.001-10 uM, read-out: RB50 (the source's name)

T5 sequence (Q15772 whole entry): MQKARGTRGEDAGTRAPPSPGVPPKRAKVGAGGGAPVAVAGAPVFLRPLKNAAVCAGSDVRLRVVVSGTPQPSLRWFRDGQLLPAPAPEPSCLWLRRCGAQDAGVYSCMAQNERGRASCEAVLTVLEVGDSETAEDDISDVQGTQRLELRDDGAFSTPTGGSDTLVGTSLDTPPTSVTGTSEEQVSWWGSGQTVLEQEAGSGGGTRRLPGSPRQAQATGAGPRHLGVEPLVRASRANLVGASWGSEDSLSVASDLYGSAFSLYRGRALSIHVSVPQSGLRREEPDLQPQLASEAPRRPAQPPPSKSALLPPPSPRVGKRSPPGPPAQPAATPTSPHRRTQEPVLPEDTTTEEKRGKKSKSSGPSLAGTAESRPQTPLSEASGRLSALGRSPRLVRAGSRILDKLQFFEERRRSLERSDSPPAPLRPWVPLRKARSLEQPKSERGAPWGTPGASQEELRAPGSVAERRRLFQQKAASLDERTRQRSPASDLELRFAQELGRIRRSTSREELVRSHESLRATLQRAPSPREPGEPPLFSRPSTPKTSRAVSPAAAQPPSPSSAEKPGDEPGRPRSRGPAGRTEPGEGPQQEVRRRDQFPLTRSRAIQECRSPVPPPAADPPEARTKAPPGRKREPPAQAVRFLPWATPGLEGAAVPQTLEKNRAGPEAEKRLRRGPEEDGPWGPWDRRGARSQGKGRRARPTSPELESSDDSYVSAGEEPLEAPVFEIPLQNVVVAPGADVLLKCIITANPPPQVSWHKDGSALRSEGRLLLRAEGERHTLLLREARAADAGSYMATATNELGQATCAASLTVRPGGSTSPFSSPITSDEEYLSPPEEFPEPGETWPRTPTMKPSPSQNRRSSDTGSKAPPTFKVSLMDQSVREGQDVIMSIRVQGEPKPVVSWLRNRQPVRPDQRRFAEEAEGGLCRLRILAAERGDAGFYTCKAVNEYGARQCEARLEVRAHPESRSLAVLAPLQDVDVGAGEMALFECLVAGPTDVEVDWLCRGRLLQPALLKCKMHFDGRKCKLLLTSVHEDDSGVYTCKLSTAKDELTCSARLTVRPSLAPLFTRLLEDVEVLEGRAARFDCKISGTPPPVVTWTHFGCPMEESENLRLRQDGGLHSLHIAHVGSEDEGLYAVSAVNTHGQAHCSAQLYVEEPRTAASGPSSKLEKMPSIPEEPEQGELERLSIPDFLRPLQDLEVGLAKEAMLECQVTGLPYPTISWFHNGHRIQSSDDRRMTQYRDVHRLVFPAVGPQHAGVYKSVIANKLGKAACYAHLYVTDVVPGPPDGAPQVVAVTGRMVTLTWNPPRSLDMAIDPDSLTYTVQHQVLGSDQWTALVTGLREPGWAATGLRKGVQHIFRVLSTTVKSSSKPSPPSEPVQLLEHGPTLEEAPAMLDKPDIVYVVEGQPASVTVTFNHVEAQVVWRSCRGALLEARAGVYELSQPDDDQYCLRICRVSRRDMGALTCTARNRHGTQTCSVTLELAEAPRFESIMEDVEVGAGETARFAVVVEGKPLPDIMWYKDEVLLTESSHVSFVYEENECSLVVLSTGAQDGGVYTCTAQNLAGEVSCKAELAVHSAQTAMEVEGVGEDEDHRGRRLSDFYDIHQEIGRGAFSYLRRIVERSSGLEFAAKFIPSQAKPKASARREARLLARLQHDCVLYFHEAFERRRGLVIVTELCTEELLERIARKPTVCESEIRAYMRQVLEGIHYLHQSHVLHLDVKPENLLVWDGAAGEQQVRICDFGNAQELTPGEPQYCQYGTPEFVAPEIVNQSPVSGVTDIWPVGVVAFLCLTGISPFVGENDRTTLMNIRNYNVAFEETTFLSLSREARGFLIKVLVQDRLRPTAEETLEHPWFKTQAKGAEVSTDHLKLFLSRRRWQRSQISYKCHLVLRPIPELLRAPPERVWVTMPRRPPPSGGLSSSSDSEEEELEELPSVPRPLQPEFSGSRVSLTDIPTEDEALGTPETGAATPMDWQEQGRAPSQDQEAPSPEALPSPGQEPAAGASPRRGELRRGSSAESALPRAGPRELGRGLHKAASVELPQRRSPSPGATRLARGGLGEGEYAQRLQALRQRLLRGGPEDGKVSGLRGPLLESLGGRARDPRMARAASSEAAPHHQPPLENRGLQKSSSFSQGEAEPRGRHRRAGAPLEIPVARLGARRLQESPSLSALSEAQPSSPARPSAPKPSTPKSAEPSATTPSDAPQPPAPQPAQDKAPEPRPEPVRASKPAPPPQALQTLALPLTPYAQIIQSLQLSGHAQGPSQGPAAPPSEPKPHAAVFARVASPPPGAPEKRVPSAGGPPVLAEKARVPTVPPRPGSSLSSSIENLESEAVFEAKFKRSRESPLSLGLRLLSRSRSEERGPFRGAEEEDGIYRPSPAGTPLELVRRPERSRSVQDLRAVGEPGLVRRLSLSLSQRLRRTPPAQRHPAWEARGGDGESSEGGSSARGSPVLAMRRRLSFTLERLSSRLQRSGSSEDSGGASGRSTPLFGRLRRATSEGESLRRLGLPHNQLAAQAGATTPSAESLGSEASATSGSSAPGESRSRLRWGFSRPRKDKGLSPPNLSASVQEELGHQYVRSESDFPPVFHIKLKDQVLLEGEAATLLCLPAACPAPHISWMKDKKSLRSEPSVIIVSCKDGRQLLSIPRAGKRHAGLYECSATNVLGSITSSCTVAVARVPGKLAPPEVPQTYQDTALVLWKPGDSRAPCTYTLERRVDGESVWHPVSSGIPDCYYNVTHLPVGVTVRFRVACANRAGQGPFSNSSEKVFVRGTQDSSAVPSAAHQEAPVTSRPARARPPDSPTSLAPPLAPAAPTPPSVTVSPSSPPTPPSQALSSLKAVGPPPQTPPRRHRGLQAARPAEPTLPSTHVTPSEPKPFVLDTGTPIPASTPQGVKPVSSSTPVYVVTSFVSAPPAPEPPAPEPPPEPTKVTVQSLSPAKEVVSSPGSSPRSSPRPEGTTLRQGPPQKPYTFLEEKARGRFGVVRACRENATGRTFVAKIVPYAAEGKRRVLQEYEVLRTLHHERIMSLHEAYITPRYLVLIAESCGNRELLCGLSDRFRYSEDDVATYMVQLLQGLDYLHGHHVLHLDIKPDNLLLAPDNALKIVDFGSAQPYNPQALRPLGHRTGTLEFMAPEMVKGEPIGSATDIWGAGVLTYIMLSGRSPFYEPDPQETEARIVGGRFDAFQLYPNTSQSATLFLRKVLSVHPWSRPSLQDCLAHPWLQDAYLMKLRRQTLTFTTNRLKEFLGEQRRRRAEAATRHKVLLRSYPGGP
T1 sequence (P08069 741-1367 limits assumed): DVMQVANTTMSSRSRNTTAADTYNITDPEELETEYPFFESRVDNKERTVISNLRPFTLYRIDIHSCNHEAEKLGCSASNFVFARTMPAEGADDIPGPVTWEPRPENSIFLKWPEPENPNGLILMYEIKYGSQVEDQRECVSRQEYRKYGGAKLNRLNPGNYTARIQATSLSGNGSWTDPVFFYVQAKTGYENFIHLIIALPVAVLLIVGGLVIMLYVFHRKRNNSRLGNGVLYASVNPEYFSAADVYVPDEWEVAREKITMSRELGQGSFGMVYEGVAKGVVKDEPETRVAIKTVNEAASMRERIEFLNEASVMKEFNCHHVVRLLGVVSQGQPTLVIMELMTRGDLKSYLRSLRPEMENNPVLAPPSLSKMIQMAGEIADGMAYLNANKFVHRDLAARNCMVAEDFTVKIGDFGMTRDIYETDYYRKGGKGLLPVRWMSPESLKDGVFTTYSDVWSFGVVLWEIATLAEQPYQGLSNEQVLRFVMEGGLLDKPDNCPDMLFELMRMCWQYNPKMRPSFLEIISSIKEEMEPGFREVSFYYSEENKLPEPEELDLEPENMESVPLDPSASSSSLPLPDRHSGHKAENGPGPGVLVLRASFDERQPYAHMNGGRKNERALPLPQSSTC
T1 sequence (P08069 31-736 partner limits assumed): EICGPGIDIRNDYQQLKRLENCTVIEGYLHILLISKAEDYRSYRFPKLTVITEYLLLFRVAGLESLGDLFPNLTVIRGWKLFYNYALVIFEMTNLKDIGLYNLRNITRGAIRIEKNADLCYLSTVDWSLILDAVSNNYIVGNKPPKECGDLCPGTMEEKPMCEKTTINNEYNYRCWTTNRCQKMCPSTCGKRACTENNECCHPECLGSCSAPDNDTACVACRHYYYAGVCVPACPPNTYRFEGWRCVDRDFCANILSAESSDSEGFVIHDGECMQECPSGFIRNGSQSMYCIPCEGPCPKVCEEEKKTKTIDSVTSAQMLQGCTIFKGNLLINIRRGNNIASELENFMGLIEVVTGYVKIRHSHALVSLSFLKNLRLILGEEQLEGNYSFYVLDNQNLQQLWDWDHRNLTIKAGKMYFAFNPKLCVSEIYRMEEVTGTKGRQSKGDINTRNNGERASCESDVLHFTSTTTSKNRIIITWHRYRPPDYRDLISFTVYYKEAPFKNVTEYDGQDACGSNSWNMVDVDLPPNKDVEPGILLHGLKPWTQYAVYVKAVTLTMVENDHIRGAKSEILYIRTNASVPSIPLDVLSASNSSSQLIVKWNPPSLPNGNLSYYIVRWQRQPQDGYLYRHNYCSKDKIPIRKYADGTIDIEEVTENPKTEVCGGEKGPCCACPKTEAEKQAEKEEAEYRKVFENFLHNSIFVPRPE

N#CCc1ccc(Nc2nc(NCCCN)cc(Nc3cc(C4CC4)[nH]n3)n2)cc1 [KAM]
median Log10 fold change ([1]; 0.001 uM KAM): -0.01905
median Log10 fold change ([1]; 0.01 uM KAM): -0.03637
median Log10 fold change ([1]; 0.1 uM KAM): -0.1832
median Log10 fold change ([1]; 1 uM KAM): -0.3556
median Log10 fold change ([1]; 10 uM KAM): -0.4489
IC50 [1, 7]: 696 nM
median Log10 fold change ([2]; 0.001 uM KAM): 0.01099
median Log10 fold change ([2]; 0.01 uM KAM): -0.05599
median Log10 fold change ([2]; 0.1 uM KAM): -0.2153
median Log10 fold change ([2]; 1 uM KAM): -0.4993
median Log10 fold change ([2]; 10 uM KAM): -0.5621
IC50 [2, 7]: 251 nM
IC50 [3, 8]: > 10 µM
0.001 uM KAM ([3]; relative to 0 uM KAM = 0): -0.02702
0.01 uM KAM ([3]; relative to 0 uM KAM = 0): -0.01686
0.1 uM KAM ([3]; relative to 0 uM KAM = 0): -0.08252
1 uM KAM ([3]; relative to 0 uM KAM = 0): -0.1762
10 uM KAM ([3]; relative to 0 uM KAM = 0): -0.2257
median Log10 fold change ([4]; 0.001 uM KAM): -0.03755
median Log10 fold change ([4]; 0.01 uM KAM): -0.07792
median Log10 fold change ([4]; 0.1 uM KAM): -0.1894
median Log10 fold change ([4]; 1 uM KAM): -0.2633
median Log10 fold change ([4]; 10 uM KAM): -0.4136
IC50 [4, 7]: 1400 nM
IC50 [5, 8]: > 10 µM
0.001 uM KAM ([5]; relative to 0 uM KAM = 0): -0.04699
0.01 uM KAM ([5]; relative to 0 uM KAM = 0): 0.03576
0.1 uM KAM ([5]; relative to 0 uM KAM = 0): -0.007872
1 uM KAM ([5]; relative to 0 uM KAM = 0): 0.04064
10 uM KAM ([5]; relative to 0 uM KAM = 0): 0.01523
median Log10 fold change ([6]; 0.001 uM KAM): -0.0153
median Log10 fold change ([6]; 0.01 uM KAM): 0.005812
median Log10 fold change ([6]; 0.1 uM KAM): -0.1317
median Log10 fold change ([6]; 1 uM KAM): -0.2502
median Log10 fold change ([6]; 10 uM KAM): -0.3407
IC50 [6, 7]: 2690 nM
